A value given as a limit tells only on which side of the number the result lay.

The target of this experiment is T1, hS1P4 (Homo sapiens, UniProt O95977).
T1 construct: expressed in transfected cells; host or cells: CHO
T1 sequence (O95977 1-384): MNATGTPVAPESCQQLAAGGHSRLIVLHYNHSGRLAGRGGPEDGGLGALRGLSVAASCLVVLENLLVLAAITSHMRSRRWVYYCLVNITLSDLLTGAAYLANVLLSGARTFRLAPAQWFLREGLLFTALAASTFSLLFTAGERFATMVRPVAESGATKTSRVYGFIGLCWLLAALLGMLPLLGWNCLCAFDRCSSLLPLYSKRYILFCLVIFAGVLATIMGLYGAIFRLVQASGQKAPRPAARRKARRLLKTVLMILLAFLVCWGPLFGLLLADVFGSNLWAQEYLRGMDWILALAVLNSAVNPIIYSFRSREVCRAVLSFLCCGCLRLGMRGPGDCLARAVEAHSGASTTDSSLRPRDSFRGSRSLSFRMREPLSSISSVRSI
The experiment can be described thus: Tango β-arrestin recruitment luciferase assay, Tango-hS1P4-CHO. Type of experiment: cell-based. Particulars: β-arrestin recruitment; 20 h drug treatment; top 45 µM, 9 serial 5-fold dilutions; positive control 25 µM BAF-312; read-out: Tango-hS1P4-CHO EC50. The text has this:
The Tango assay detects ligand-dependent GPCR activity through the interaction between β-arrestin and GPCRs. […] The NTEV fragment and the tetracycline transactivator (tTA), an artificial transcription factor, are fused at the C-terminus of the GPCR, while the CTEV fragment is fused to human β-arrestin 2. To enhance the stability of the interaction between GPCR and β-arrestin, a short sequence from the C-terminus of the human arginine vasopressin receptor 2 (V2 tail) is inserted between the GPCR and NTEV. The V2 tail contains multiple GRK phosphorylation sites, which strengthen β-arrestin binding upon phosphorylation. The CTEV fragment carries the stabile point mutation S219P and is truncated at residue 221 to remove the autoinhibitory C-terminal tail. Meanwhile, β-arrestin 2 is truncated to lack the entire C-terminal tail (residues 383-410 deleted). This truncation confers robust stimulus-dependent receptor desensitization, thereby improving detection sensitivity compared with wild-type β-arrestin 2. The UAS reporter construct consists of upstream activating sequence (UAS) elements, a minimal CMV promoter, and a tTA-dependent luciferase reporter gene. Therefore, constructing Tango cells requires the co-transfection of the above three plasmids into host cells. Upon GPCR activation and β-arrestin recruitment, the TEV enzyme at the β-arrestin terminus cleaves tTA from the GPCR C-terminus. The released tTA initiates tTA-dependent luciferase transcription, and compound activity is ultimately determined by measuring luminescence intensity.
• 1) Tango cell line from was digested from the culture dish respectively. After cell counting, the cells were plated at a density of 10,000 cells per well with […] into a white opaque 96-well plate (add 60 µL D'Hanks to the surrounding wells), and incubated overnight (20 h) in a 5% CO2 incubator at 37°C. The cell density will reach approximately 90% the next day. • 2) After 20 h, 30 µL of serially diluted compound solution was added to each well. The control group was supplemented with 30 µL F12K complete medium. Each group had three replicate wells. • 3) Samples were collected after 20 h of drug treatment.
(All compounds were tested at a final concentration of 45 µM, with 9 serial dilutions at 5-fold intervals. 1 µM BAF-312 was used as the positive control for S1PR1, and 25 µM BAF-312 was used as the positive control for S1PR4.
As for `COc1cc(/C(C)=N/OCc2ccc(C3CCCCC3)c(C(F)(F)F)c2)ccc1CN1CC(C(=O)O)C1` [Compound 27], the EC50 stood at 1700 nM.

Take `CCc1cc(/C(C)=N/OCc2ccc(-c3ccc(F)nc3)c(F)c2)ccc1CN1CC[C@H](C(=O)O)C1` [Compound 69, (S, E)-1-(2-ethyl-4-(1-(((3-fluoro-4-(6-fluoropyridin-3-yl)benzyl)oxy)imino)ethyl)benzyl)pyrrolidine-3-carboxylic acid]: the EC50 was 8.28 ± 0.38 nM.

Regarding `CCc1cc(/C(C)=N/OCc2cccc(C(F)(F)F)c2)ccc1CN1CC(C(=O)O)C1` [Compound 13], the EC50 was 3240 nM.

Regarding `CCc1cc(/C(C)=N/OCc2ccc(-c3ccsc3)cc2)ccc1CN1CC[C@H](C(=O)O)C1` [Compound 56], the EC50 was found to be 5.05 ± 1.84 nM.

As to `CCc1cc(/C(C)=N/OCc2ccc(OC(C)C)c(C#N)c2)ccc1CN1CC(C(=O)O)C1` [Compound 16, (E)-1-(4-(1-(((3-cyano-4-isopropoxybenzyl)oxy)imino)ethyl)-2-ethylbenzyl)azetidine-3-carboxylic acid], the EC50 worked out at 3320 nM.

In the case of `CCc1cc(/C(C)=N/OCc2ccc(-c3ccsc3)c(C)c2)ccc1CN1CC[C@H](C(=O)O)C1` [Compound 41, (S, E)-1-(2-ethyl-4-(1-(((3-methyl-4-(thiophen-3-yl)benzyl)oxy)imino)ethyl)benzyl)pyrrolidine-3-carboxylic acid], the concentration giving a half-maximal response (EC50) was found to be 2.91 ± 0.01 nM.

For the compound `C/C(=N\OCc1ccc(C2CCCCC2)c(C(F)(F)F)c1)c1ccc(CN2CC(C(=O)O)C2)c(Br)c1` [Compound 12, (E)-1-(2-bromo-4-(1-((4-cyclohexyl-3-(trifluoromethyl)benzyl)oxy)imino)ethyl)azetidine-3-carboxylic acid], the EC50 came out at 2250 nM.

Consider `CCc1cc(/C(C)=N/OCc2ccc(-c3cncnc3)c(C)c2)ccc1CN1CC(C(=O)O)C1` [Compound 81, (E)-1-(2-ethyl-4-(1-(((3-methyl-4-(pyrimidin-5-yl)benzyl)oxy)imino)ethyl)benzyl)azetidine-3-carboxylic acid], for which the EC50 is 103 ± 9.1 nM.

As for `CCc1cc(/C(C)=N/OCc2ccc(-c3ncc(F)cn3)c(C)c2)ccc1CN1CC[C@H](C(=O)O)C1` [Compound 77, (S, E)-1-(2-ethyl-4-(1-(((4-(5-fluoropyrimidin-2-yl)-3-methylbenzyl)oxy)imino)ethyl)benzyl)pyrrolidine-3-carboxylic acid], the EC50 was 5.93 ± 4.12 nM.

As for `CCc1cc(/C(C)=N/OCc2ccc(C3CCCCC3)c(C)c2)ccc1CN1CC[C@H](C(=O)O)C1` [Compound 60, (S, E)-1-(2-ethyl-4-(1-(((4-cyclohexyl-3-methylbenzyl)oxy)imino)ethyl)benzyl)pyrrolidine-3-carboxylic acid], the half-maximal effective concentration (EC50) was found to be 71.7 nM.

Regarding `CCc1cc(/C(C)=N/OCc2ccc(-c3ccsc3)c(F)c2)ccc1CN1CC[C@H](C(=O)O)C1` [Compound 85, (S, E)-1-(2-ethyl-4-(1-(((3-fluoro-4-(thiophen-3-yl)benzyl)oxy)imino)ethyl)benzyl)pyrrolidine-3-carboxylic acid], the EC50 came out at 8.52 ± 0.21 nM.

Consider `CCc1cc(/C(C)=N/OCc2ccc(-c3ccccc3F)c(F)c2)ccc1CN1CC[C@H](C(=O)O)C1` [Compound 64], for which the half-maximal effective concentration (EC50) came out at 7.77 ± 1.02 nM.

Consider `CCc1cc(/C(C)=N/OCc2ccc(-c3ccc(F)cc3F)c(C)c2)ccc1CN1CC[C@H](C(=O)O)C1` [Compound 47, (S, E)-1-(2-ethyl-4-(1-(((2',4'-difluoro-2-methyl-[1,1'-biphenyl]-4-yl)methoxy)imino)ethyl)benzyl)pyrrolidine-3-carboxylic acid], for which the concentration giving a half-maximal response (EC50) came to 4.67 nM.

Regarding `CCc1cc(/C(C)=N/OCc2ccc(-c3cnc(F)cn3)c(C)c2)ccc1CN1CCC(C(=O)O)CC1` [Compound 90, (E)-1-(2-ethyl-4-(1-(((3-methyl-4-(5-fluoropyrazin-2-yl)-benzyl)oxy)imino)ethyl)benzyl)piperidine-4-carboxylic acid], the EC50 is more than 10000 nM.

The record behind these values is patent publication EP4790048A1, “S1PR4 REGULATOR COMPOUND FOR AUTOIMMUNE DISEASE TREATMENT AND APPLICATION THEREOF” (Shengyuan Zetong (Shanghai) Pharmaceutical Co., Ltd, priority 2023, dated 2025).
